target: T1, human PTH1 receptor (Homo sapiens, UniProt Q03431); test: In vitro cAMP signal activity in HKRK-B7 cells (LLC-PK1 cells overexpressing the human PTH1 receptor); type: cell-based; conditions: HKRK-B7 cells; compound at 1×10^−3 M; cAMP produced as percentage of that produced by hPTH(1-34) at 100 nM
T1 sequence (Q03431 27-593): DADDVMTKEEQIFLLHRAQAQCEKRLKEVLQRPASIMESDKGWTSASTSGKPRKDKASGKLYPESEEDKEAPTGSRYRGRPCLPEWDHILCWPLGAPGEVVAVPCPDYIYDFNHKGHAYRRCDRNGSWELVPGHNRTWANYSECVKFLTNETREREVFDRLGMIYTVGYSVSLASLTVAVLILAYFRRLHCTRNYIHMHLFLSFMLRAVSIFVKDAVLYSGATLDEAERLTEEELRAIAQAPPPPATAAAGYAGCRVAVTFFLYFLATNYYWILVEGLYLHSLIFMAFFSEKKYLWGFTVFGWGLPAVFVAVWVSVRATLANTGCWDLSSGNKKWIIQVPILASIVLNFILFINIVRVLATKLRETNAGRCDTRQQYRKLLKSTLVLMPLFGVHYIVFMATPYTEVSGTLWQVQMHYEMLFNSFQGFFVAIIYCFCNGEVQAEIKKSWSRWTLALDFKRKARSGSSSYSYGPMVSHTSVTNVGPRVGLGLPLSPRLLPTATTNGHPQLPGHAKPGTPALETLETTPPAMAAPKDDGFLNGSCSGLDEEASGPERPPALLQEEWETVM

Question: Which “cAMP production activity (%)” value does the source give for `O=C1NC(C2CCCCC2)=NC12CCN(S(=O)(=O)CCc1cccc3[nH]c(=O)oc13)CC2` [Compound 261, 2-Cyclohexyl-8-[2-(2-oxo-2,3-dihydro-benzoxazol-7-yl)-ethanesulfonyl]-1,3,8-triaza-spiro[4.5]dec-1-en-4-one] here?
Answer: 70%

Question: How did the “cAMP production activity (%)” value turn out when `Cc1cc(C(=O)N2CC[C@H](O)C2)cc(C)c1/C=C/S(=O)(=O)N1CCC2(CC1)N=C(c1cccc(OC(F)(F)F)c1)NC2=O` [Compound 402, 8-{(E)-2-[4-((S)-3-hydroxy-pyrrolidine-1-carbonyl)-2,6-dimethyl-phenyl]-ethenesulfonyl}-2-(3-trifluoromethoxy-phenyl)-1,3,8-triaza-spiro[4.5]dec-1-en-4-one] was run?
Answer: 85%

Question: How did the “cAMP production activity (%)” value turn out when `Cc1cc(C(=O)N2CCC(C)(O)CC2)cc(C)c1/C=C/S(=O)(=O)N1CCC2(CC1)N=C(C1CCC(CCC(F)(F)F)CC1)NC2=O` (stereo not shown) [Compound 989, 8-{(E)-2-[4-(4-Hydroxy-4-methyl-piperidine-1-carbonyl)-2,6-dimethyl-phenyl]-ethenesulfonyl}-2-[4-(3,3,3-trifluoro-propyl)-cyclohexyl]-1,3,8-triaza-spiro[4.5]dec-1-en-4-one] was run?
Answer: 86%

Question: Which “cAMP production activity (%)” value does the source give for `CC(=O)Nc1cccc(C)c1/C=C/S(=O)(=O)N1CCC2(CC1)N=C(C1CCCCC1)NC2=O` [Compound 190, N-{2-[(E)-2-(2-cyclohexyl-4-oxo-1,3,8-triaza-spiro[4.5]dec-1-ene-8-sulfonyl)-vinyl]-3-methyl-phenyl}-acetamide] here?
Answer: 61%

Question: `O=C1NC(C2(c3ccccc3)CCCCC2)=NC12CCN(S(=O)(=O)c1cccc(Cl)c1)CC2` [Compound 33, 8-(3-chloro-benzenesulfonyl)-2-(1-phenyl-cyclohexyl)-1,3,8-triaza-spiro[4.5]dec-1-en-4-one] was tested. Which “cAMP production activity (%)” value did it give?
Answer: 4.4%

Question: With `COCCN(C(C)=O)c1cc(C)c(/C=C/S(=O)(=O)N2CCC3(CC2)N=C(C2CCC(C)CC2)NC3=O)c(C)c1` (stereo not shown) [Compound 514, N-(3,5-dimethyl-4-{(E)-2-[2-(4-methyl-cyclohexyl)-4-oxo-1,3,8-triaza-spiro[4.5]dec-1-ene-8-sulfonyl]-vinyl}-phenyl)-N-(2-methoxy-ethyl)-acetamide] as the molecule, how does the “cAMP production activity (%)” value read?
Answer: 75%

Question: Which “cAMP production activity (%)” value does the source give for `CC(=O)N(CCO)c1cc(C)c(CCS(=O)(=O)N2CCC3(CC2)N=C(c2cccc(OC(F)(F)F)c2)NC3=O)cc1F` [Compound 873, N-(2-fluoro-5-methyl-4-{2-[4-oxo-2-(3-trifluoromethoxy-phenyl)-1,3,8-triaza-spiro[4.5]dec-1-ene-8-sulfonyl]-ethyl}-phenyl)-N-(2-hydroxy-ethyl)-acetamide] here?
Answer: 77%

Question: With `CC(=O)N(C)c1cccc(/C=C/S(=O)(=O)N2CCC3(CC2)N=C(c2cccc(OC(F)(F)F)c2)NC3=O)c1C` [Compound 236, N-methyl-N-(2-methyl-3-{(E)-2-[4-oxo-2-(3-trifluoromethoxy-phenyl)-1,3,8-triaza-spiro[4.5]dec-1-ene-8-sulfonyl]-vinyl}-phenyl)-acetamide] as the molecule, how does the “cAMP production activity (%)” value read?
Answer: 40%

Question: How did the “cAMP production activity (%)” value turn out when `Cc1cc(N(C)C(N)=O)cc(C)c1CCS(=O)(=O)N1CCC2(CC1)N=C([C@@H]1C[C@H](C)C[C@H](C)C1)NC2=O` [Compound 1040, 1-(4-{2-[2-((1S,3S,5R)-3,5-dimethyl-cyclohexyl)-4-oxo-1,3,8-triaza-spiro[4.5]dec-1-ene-8-sulfonyl]-ethyl}-3,5-dimethyl-phenyl)-1-methyl-urea] was run?
Answer: 111%

Question: How did the “cAMP production activity (%)” value turn out when `NCc1ccc(/C=C/S(=O)(=O)N2CCC3(CC2)N=C(C2CCCCC2)NC3=O)cc1` [Compound 687, 8-[(E)-2-(4-aminomethyl-phenyl)-ethenesulfonyl]-2-cyclohexyl-1,3,8-triaza-spiro[4.5]dec-1-en-4-one] was run?
Answer: 25%

Question: For `Cc1cc2c(CCS(=O)(=O)N3CCC4(CC3)N=C(C3CCCCC3)NC4=O)cccc2[nH]1` [Compound 745, 2-Cyclohexyl-8-[2-(2-methyl-1H-indol-4-yl)-ethanesulfonyl]-1,3,8-triaza-spiro[4.5]dec-1-en-4-one], which “cAMP production activity (%)” value is on record?
Answer: 67%

Question: How did the “cAMP production activity (%)” value turn out when `Cc1cc(N2CCN(CCO)C2=O)ccc1CCS(=O)(=O)N1CCC2(CC1)N=C(c1cccc(C(F)(F)F)c1)NC2=O` [Compound 674, 8-(2-{4-[3-(2-Hydroxy-ethyl)-2-oxo-imidazolidin-1-yl]-2-methyl-phenyl}-ethanesulfonyl)-2-(3-trifluoromethyl-phenyl)-1,3,8-triaza-spiro[4.5]dec-1-en-4-one] was run?
Answer: 68%

Question: With `CN(C)CCNC(=O)Cc1ccc(CCS(=O)(=O)N2CCC3(CC2)N=C(C2CCCCC2)NC3=O)cc1` [Compound 282, 2-{4-[2-(2-cyclohexyl-4-oxo-1,3,8-triaza-spiro[4.5]dec-1-ene-8-sulfonyl)-ethyl]-phenyl}-N-(2-dimethylamino-ethyl)-acetamide] as the molecule, how does the “cAMP production activity (%)” value read?
Answer: 29%

Question: `Cc1cc2ccc1CCS(=O)(=O)N1CCC3(CC1)N=C(NC3=O)c1ccc(C(F)(F)F)c(c1)OCCCCCOCCN(C)C2=O` [Compound 1432] was tested. Which “cAMP production activity (%)” value did it give?
Answer: 18%

Question: `CC(=O)N(CCOCCO)c1cc(C)c(/C=C/S(=O)(=O)N2CCC3(CC2)N=C(C2CCC(CCC(F)(F)F)CC2)NC3=O)c(C)c1` (stereo not shown) [Compound 699, N-[3,5-Dimethyl-4-((E)-2-{4-oxo-2-[4-(3,3,3-trifluoro-propyl)-cyclohexyl]-1,3,8-triaza-spiro[4.5]dec-1-ene-8-sulfonyl}-vinyl)-phenyl]-N-[2-(2-hydroxy-ethoxy)-ethyl]-acetamide] was tested. Which “cAMP production activity (%)” value did it give?
Answer: 101%

Question: With `Cc1cc(C(=O)N(C)CCN(C)C)cc(C)c1/C=C/S(=O)(=O)N1CCC2(CC1)N=C(c1cccc(C(F)(F)F)c1)NC2=O` [Compound 390, N-(2-dimethylamino-ethyl)-3,5,N-trimethyl-4-{(E)-2-[4-oxo-2-(3-trifluoromethyl-phenyl)-1,3,8-triaza-spiro[4.5]dec-1-ene-8-sulfonyl]-vinyl}-benzamide] as the molecule, how does the “cAMP production activity (%)” value read?
Answer: 22%

Question: `Cc1cc(C(=O)N2CCC(C)(O)CC2)cc(C)c1/C=C/S(=O)(=O)N1CCC2(CC1)N=C(c1ccc(C(F)(F)F)c(OC(C)(C)C(F)(F)F)c1)NC2=O` [Compound 1209, 8-{(E)-2-[4-(4-hydroxy-4-methyl-piperidine-1-carbonyl)-2,6-dimethyl-phenyl]-ethenesulfonyl}-2-[3-(2,2,2-trifluoro-1,1-dimethyl-ethoxy)-4-trifluoromethyl-phenyl]-1,3,8-triaza-spiro[4.5]dec-1-en-4-one] was tested. Which “cAMP production activity (%)” value did it give?
Answer: 94%

Question: For `Cc1cc(C(=O)N2CCCC2)ccc1CCS(=O)(=O)N1CCC2(CC1)N=C(c1ccc(F)c(C(F)(F)F)c1)NC2=O` [Compound 856, 2-(4-fluoro-3-trifluoromethyl-phenyl)-8-{2-[2-methyl-4-(pyrrolidine-1-carbonyl)-phenyl]-ethanesulfonyl}-1,3,8-triaza-spiro[4.5]dec-1-en-4-one], which “cAMP production activity (%)” value is on record?
Answer: 81%

Question: How did the “cAMP production activity (%)” value turn out when `Cc1cc(C(=O)N2CCC(O)(CF)CC2)cc(C)c1/C=C/S(=O)(=O)N1CCC2(CC1)N=C(c1ccc(F)c(C(F)(F)F)c1)NC2=O` [Compound 641, 8-{(E)-2-[4-(4-fluoromethyl-4-hydroxy-piperidine-1-carbonyl)-2,6-dimethyl-phenyl]-ethenesulfonyl}-2-(4-fluoro-3-trifluoromethyl-phenyl)-1,3,8-triaza-spiro[4.5]dec-1-en-4-one] was run?
Answer: 85%

Question: For `COC(=O)NCCc1ccc(CCS(=O)(=O)N2CCC3(CC2)N=C(C2CCCCC2)NC3=O)cc1` [Compound 672, (2-{4-[2-(2-Cyclohexyl-4-oxo-1,3,8-triaza-spiro[4.5]dec-1-ene-8-sulfonyl)-ethyl]-phenyl}-ethyl)-carbamic acid methyl ester], which “cAMP production activity (%)” value is on record?
Answer: 47%

Question: How did the “cAMP production activity (%)” value turn out when `Cc1cc(S(=O)(=O)Nc2cccnc2)ccc1/C=C/S(=O)(=O)N1CCC2(CC1)N=C(c1cccc(C(F)(F)F)c1)NC2=O` [Compound 219, 3-methyl-4-{(E)-2-[4-oxo-2-(3-trifluoromethyl-phenyl)-1,3,8-triaza-spiro[4.5]dec-1-ene-8-sulfonyl]-vinyl}-N-pyridin-3-yl-benzenesulfonamide] was run?
Answer: 60%

Question: How did the “cAMP production activity (%)” value turn out when `CC(=O)Nc1ccc(CCS(=O)(=O)N2CCC3(CC2)N=C([C@H]2CCC[C@@H](C)C2)NC3=O)c(C)c1` [Compound 924, N-(3-methyl-4-{2-[2-((1S,3R)-3-methyl-cyclohexyl)-4-oxo-1,3,8-triaza-spiro[4.5]dec-1-ene-8-sulfonyl]-ethyl}-phenyl)-acetamide] was run?
Answer: 76%

Question: `Cc1cc(N(C)C(N)=O)cc(C)c1/C=C/S(=O)(=O)N1CCC2(CC1)N=C(C1CCC(C(F)(F)F)CC1)NC2=O` (stereo not shown) [Compound 471, 1-(3,5-Dimethyl-4-{(E)-2-[4-oxo-2-(4-trifluoromethyl-cyclohexyl)-1,3,8-triaza-spiro[4.5]dec-1-ene-8-sulfonyl]-vinyl}-phenyl)-1-methyl-urea] was tested. Which “cAMP production activity (%)” value did it give?
Answer: 111%

Question: `CC(=O)N(CC1(C)COC1)c1cc(C)c(/C=C/S(=O)(=O)N2CCC3(CC2)N=C(C2CCCCC2)NC3=O)c(C)c1` [Compound 574, N-{4-[(E)-2-(2-cyclohexyl-4-oxo-1,3,8-triaza-spiro[4.5]dec-1-ene-8-sulfonyl)-vinyl]-3,5-dimethyl-phenyl}-N-(3-methyl-oxetan-3-ylmethyl)-acetamide] was tested. Which “cAMP production activity (%)” value did it give?
Answer: 42%

Question: Which “cAMP production activity (%)” value does the source give for `O=C1NC(c2cccc(OC(F)(F)F)c2)=NC12CCN(S(=O)(=O)CCc1cccc3[nH]ccc13)CC2` [Compound 305, 8-[2-(1H-indol-4-yl)-ethanesulfonyl]-2-(3-trifluoromethoxy-phenyl)-1,3,8-triaza-spiro[4.5]dec-1-en-4-one] here?
Answer: 73%
